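A five-concentration, 48-hour dose response in 96-well plates underlies each endpoint, interpolated linearly between surrounding concentrations. GI50 is the concentration that inhibits growth by half.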 Calls of active or inactive are those of the source. Rule as the data show it: active = GI50 up to about 1.1 µM and inactive = higher.
Experiments:
Assay in all cases: DTP human tumour cell line panel, 48 h
[1] = test system: TK-10
[2] = test system: MDA-MB-231
[3] = test system: 786-0
[4] = test system: COLO 205
[5] = test system: MOLT-4
[6] = test system: SF-295
[7] = test system: SN12C
[8] = test system: MDA-N
[9] = test system: SW-620
[10] = test system: UO-31
[11] = test system: OVCAR-5
[12] = test system: K562
[13] = test system: EKVX
[14] = test system: RXF 393
[15] = test system: NCI-H522
[16] = test system: KM12
[17] = test system: Hs-578T
[18] = test system: MCF7
[19] = test system: PC-3
[20] = test system: HL-60

Measured: GI50

[C-]#[N+]C(=C\c1ccc(O)cc1)/C(=C/c1ccc(O)cc1)[N+]#[C-] [XANTOCILLIN]
inactive: [1] 3.01 µM | [2] 2.74 µM | [3] 6.4 µM | [4] 20.1 µM | [5] 1.57 µM | [6] 4.02 µM | [7] 2.06 µM | [8] 1.47 µM | [9] 1.14 µM | [10] 1.48 µM | [11] 4.94 µM | [13] 2.06 µM | [14] 1.85 µM | [15] 3.14 µM | [16] 2.16 µM | [18] 1.55 µM | [19] 3.65 µM
active: [12] 0.465 µM | [17] 0.718 µM | [20] 1.07 µM

C[C@@]1(OC(=O)c2cc([N+](=O)[O-])cc([N+](=O)[O-])c2)C[C@@H]2CCCC[C@@H]21
inactive: [1] > 100 µM | [2] > 100 µM | [3] > 100 µM | [4] > 100 µM | [5] > 100 µM | [6] 66.4 µM | [7] > 100 µM | [8] > 100 µM | [9] > 100 µM | [10] > 100 µM | [11] > 100 µM | [12] > 100 µM | [13] > 100 µM | [15] > 100 µM | [16] > 100 µM | [17] 41.8 µM | [18] > 100 µM | [19] > 100 µM | [20] > 100 µM

CC(=O)Nn1cnc(C(=N)C#N)c1N
inactive: [1] > 100 µM | [2] > 100 µM | [3] > 100 µM | [4] > 100 µM | [5] > 100 µM | [6] > 100 µM | [7] > 100 µM | [8] > 100 µM | [9] > 100 µM | [10] > 100 µM | [11] > 100 µM | [12] > 100 µM | [13] > 100 µM | [15] > 100 µM | [16] > 100 µM | [17] > 100 µM | [18] > 100 µM | [19] > 100 µM | [20] > 100 µM

Cc1cc2c(c(/C=N/c3ccc([N+](=O)[O-])cc3)c1)OC1(C=C2)Oc2ccccc2C(=O)N1C (configuration not stated)
inactive: [1] 24.5 µM | [2] 16.9 µM | [3] 22.6 µM | [4] 20 µM | [5] 4.94 µM | [6] 24.4 µM | [7] 20.5 µM | [8] 24.8 µM | [9] 29.1 µM | [10] 13.5 µM | [11] 28.6 µM | [12] 19.2 µM | [13] 13.6 µM | [14] 18.5 µM | [15] 21.5 µM | [16] 20 µM | [17] 27.2 µM | [18] 17.6 µM | [19] 18 µM | [20] 23.2 µM

CSc1[nH]nc(N)c1C(=O)Nc1ccc(Cl)cc1
inactive: [1] 47.2 µM | [2] > 100 µM | [3] 52.1 µM | [4] 99.5 µM | [5] 51.6 µM | [7] > 100 µM | [8] > 100 µM | [9] 57.3 µM | [10] 33 µM | [11] > 100 µM | [12] 51.3 µM | [13] > 100 µM | [14] 22.9 µM | [15] 27 µM | [16] 55.6 µM | [17] > 100 µM | [18] 84.7 µM | [19] 55.5 µM | [20] 34.8 µM

O=C(CNC(c1ccccc1)(c1ccccc1)c1ccccc1)NC1CCCCC1NC(=O)CNC(c1ccccc1)(c1ccccc1)c1ccccc1 (configuration not stated)
inactive: [1] > 100 µM | [2] > 100 µM | [3] 85.7 µM | [4] > 100 µM | [5] > 100 µM | [6] > 100 µM | [7] > 100 µM | [8] > 100 µM | [9] > 100 µM | [10] > 100 µM | [11] > 100 µM | [12] > 100 µM | [13] 2.99 µM | [15] > 100 µM | [16] > 100 µM | [17] 32.9 µM | [18] > 100 µM | [19] > 100 µM | [20] > 100 µM

O=C(CCCN1CCc2[nH]c3cc(F)ccc3c2C1)c1ccc(F)cc1
inactive: [1] 12.4 µM | [2] 12.5 µM | [3] 13.5 µM | [4] 4.84 µM | [5] 13 µM | [6] 17.4 µM | [7] 14.3 µM | [8] 15.7 µM | [9] > 100 µM | [11] 12.2 µM | [12] 5.71 µM | [13] 14.8 µM | [14] 14.4 µM | [15] 20.7 µM | [16] 13.9 µM | [17] 10.5 µM | [18] 4.59 µM | [19] 12.9 µM | [20] 11.1 µM

CC1(C)N/C(=C\[N+](=O)[O-])C(C)(C)N1O
inactive: [1] > 10 µM | [2] > 10 µM | [3] > 10 µM | [4] > 10 µM | [5] > 10 µM | [6] > 10 µM | [7] > 10 µM | [8] > 10 µM | [9] > 10 µM | [11] > 10 µM | [13] > 10 µM | [14] > 10 µM | [15] > 10 µM | [16] > 10 µM | [17] > 10 µM | [18] > 10 µM | [19] > 10 µM | [20] > 10 µM

C=C1C(=O)OC2/C=C(\C)CC/C=C(/C)CC(OC(=O)/C(=C/CO)CO)C12 (configuration not stated)
inactive: [1] 15.7 µM | [2] > 10 µM | [3] 23.6 µM | [4] 16.9 µM | [5] 25.6 µM | [6] 93.5 µM | [8] 20.5 µM | [9] 21.4 µM | [10] 17 µM | [11] 18.7 µM | [12] 30 µM | [13] > 10 µM | [14] 11 µM | [15] 17.1 µM | [16] > 100 µM | [17] 39.7 µM | [18] 19.6 µM | [19] > 100 µM | [20] 3.33 µM

Cc1cc2nc3c(C)c4ccccc4c(C)n3c2cc1C
inactive: [1] 5.27 µM | [2] 1.62 µM | [3] 1.24 µM | [4] 2.15 µM | [5] 2.39 µM | [6] 2.59 µM | [7] 2.07 µM | [8] 1.89 µM | [9] 2.49 µM | [11] 2.48 µM | [12] 5.21 µM | [13] 5 µM | [14] 2.84 µM | [15] 2.51 µM | [16] 3.34 µM | [17] 5.56 µM | [18] 1.49 µM | [19] 2.96 µM | [20] 3.22 µM

COC(=O)C(C)(Cc1ccc2c(c1)nnn2C(C)=O)NC(C)=O (configuration not stated)
inactive: [1] > 100 µM | [2] > 100 µM | [3] > 100 µM | [4] > 100 µM | [5] > 100 µM | [6] > 100 µM | [8] > 100 µM | [9] > 100 µM | [10] > 100 µM | [11] > 100 µM | [12] > 100 µM | [13] > 100 µM | [14] > 100 µM | [15] > 100 µM | [16] > 100 µM | [17] > 100 µM | [18] > 100 µM | [19] > 100 µM | [20] > 100 µM

S=C1CC(c2ccccc2)Sc2cc(Cl)ccc2N1 (configuration not stated)
inactive: [1] 16.2 µM | [2] 7.57 µM | [3] 5.42 µM | [4] 5.02 µM | [5] 1.51 µM | [6] 3.45 µM | [7] 8.77 µM | [10] 44.5 µM | [11] > 100 µM | [13] 20.7 µM | [14] 6.55 µM | [15] 2.21 µM | [16] 3.97 µM | [17] 8.91 µM | [18] 4.34 µM | [19] 1.87 µM
active: [8] 0.661 µM | [12] 0.64 µM | [20] 0.726 µM

CC(=O)CC(=O)Nc1ccc2ccccc2c1
inactive: [1] 65.8 µM | [2] > 100 µM | [3] > 100 µM | [4] 35.5 µM | [5] 36.7 µM | [6] 69.7 µM | [7] > 100 µM | [8] > 100 µM | [9] > 100 µM | [11] > 100 µM | [12] 46.9 µM | [13] > 100 µM | [14] > 100 µM | [15] 47.2 µM | [16] > 100 µM | [17] > 100 µM | [18] 74.3 µM | [19] > 100 µM | [20] > 100 µM

C#CCn1c2c(c3ccccc3c1=O)C(=O)c1ccccc1-2
inactive: [1] 19.5 µM | [2] 15.2 µM | [3] 14 µM | [4] 22.4 µM | [5] 2.83 µM | [6] 20.2 µM | [7] 11.4 µM | [8] 37.7 µM | [9] 23.9 µM | [10] 2 µM | [11] 24.7 µM | [12] 19 µM | [13] 16.3 µM | [15] 10.7 µM | [16] 10.1 µM | [17] 15.8 µM | [18] 9.06 µM | [19] 11.7 µM | [20] 2.94 µM

— ChEMBL document CHEMBL1201862, “PubChem BioAssay data set” (2004)
